Experimental data from article PMC5902495, “Synthesis of Symmetrical Tetrameric Conjugates of the Radiolanthanide Chelator DOTPI for Application in Endoradiotherapy by Means of Click Chemistry” (Frontiers in Chemistry, 2018).

How the values were obtained:
[1] = Protonation constants of ligands by pH-potentiometry; format: physicochemical; conditions: 25°C, I = 0.15 M NaCl
Excerpt: (§1) For determining the protonation constants of DOTPI(Chx)4 and DOTPI three parallel pH-potentiometric titration were made with 0.2 M NaOH in 0.002 M ligand solutions. The stability and protonation constants of the Ca^II and Zn^II complexes formed with DOTPI(Chx)4 and DOTPI ligands have been determined by direct pH-potentiometric titration made at 1:1 and 2:1 metal to ligand concentration ratios. (the concentration of ligands was 0.002 M). For the calculation of the logKML and logKMLHi values, the mL base—pH data used were obtained in the pH range 1.7–12.0.
(§2) For pH measurements and titrations, a Metrohm 785 DMP Titrino titration workstation and a Metrohm-6.0233.100 combined electrode were used. Equilibrium measurements were carried out at a constant ionic strength (0.15 M NaCl) in 6 mL samples at 25°C. The solutions were stirred, and constantly purged with N2. The titrations were performed in a pH range of 1.7–11.7. KH-phthalate (pH = 4.005) and borax (pH = 9.177) buffers were used to calibrate the pH meter. For calculation of [H^+] from measured pH values, the method proposed by Irving et al. was used (Irving et al., [1967]). A 0.01 M HCl solution was titrated with the standardized NaOH solution in the presence of 0.1 M NaCl. Differences between the measured (pHread) and calculated pH (–log[H^+]) values were used to obtain the equilibrium H^+ concentration from the pH values, measured in the titration experiments. For the equilibrium calculations, the stoichiometric water ionic product (pKw) is also needed to calculate [H^+] values in basic conditions. The VNaOH – pHread data pairs of the HCl – NaOH titration obtained in the pH range 10.5–12 have been used to calculate the pKw value (pKw = 13.85). For the calculation of the equilibrium constants the program PSEQUAD (Zekany and Nagypal, [1985]) was used.
(§3) 2. Protonation and complexation equilibria of DOTPI and
(§4) The protonation processes of the DOTPI and DOTPI(Chx)4, ligands have been studied by pH-potentiometry. The protonation constants (logKiH) of ligands are defined according to Eq. (1).
(§5) The stability and protonation constants of DOTPI and DOTPI(Chx)4 complexes with several metal ions were determined by pH-potentiometric and UV/Vis spectrophotometric, methods.
(§6) The stability and protonation constants of the metal complexes formed with the DOTPI and DOTPI(Chx)4, ligands, defined by Eqs. […]
(§7) where i = 1, 2, 3…5. The KML and KMHiL values characterizing the formation of DOTPI and DOTPI(Chx)4 complexes of CaII and ZnII have been calculated from the pH-potentiometric titration data obtained at 1:1 metal to ligand concentration ratios. The protonation constants of the complexes Cu(DOTPI) and Cu(DOTPI( Chx)4) were also determined by pH-potentiometric titrations, made at 1:1 metal to ligand concentration ratio. The pH-potentiometric titrations of DOTPI ligand were also performed at 2:1 metal-to-ligand ratio in order to examine the possible formation of dinuclear CaII-, ZnII-, and CuII-DOTPI complexes.
The stability and protonation constants of the dinuclear complexes formed with the DOTPI […]
where i=1 and 2. In calculating the equilibrium constants, the best fit of the mL base – pH data was obtained by assuming the formation of ML, MHL, MH 2L, MH3L, MH4L, MH5L, M2L, M2LH, and M2LH2 complexes with DOTPI and DOTPI(Chx)4.
(also on this page, place not known: ]H][LH[ ]LH[K 1i iH + − = DOTPI( Chx)4 f ormed ]L][M[ ]ML[K ML = ]H][LMH[ ]LMH[K 1i i LMHi + − = i 3 …5. Ca II Zn II -potentiometric pH - metal -to-ligand Cu II-DOTPI ]M][ML[ ]LM[K 2 LM2 = ]H][LHM[ ]LHM[K 1i2 i2 LHM i2 + − = pH MH 4L,) […]

[2] = Stability and protonation constants of Ca^II complexes (pH-potentiometry); format: physicochemical; conditions: 25°C, 0.15 M NaCl
Excerpt: as §1, §2, §3, §4, §5, §6
as §7, with “The pH-potentiometric titrations of DOTPI ligand were also performed at 2:1 metal-to-ligand ratio in order to examine the possible formation of dinuclear CaII-, ZnII-, and CuII-DOTPI complexes.” left out

[3] = 25°C, I = 0.1 M Me4NCl; ref Lázár et al., [1991]; cited from earlier work
[4] = 25°C, I = 0.1 M Me4NCl; ref Lázár et al., [1991]; cited from earlier work; remark: listed apart in the source

log K1H [1]: 10.27 (1)
log K2H [1]: 8.42 (1)
log K3H [1]: 5.45 (2)
log K4H [1]: 4.78 (2)
log K5H [1]: 4.42 (2)
log K6H [1]: 3.88 (2)
log K7H [1]: 2.83 (2)
log K8H [1]: 1.17 (2)
Σlog KiH (total basicity) ([1]; distant carboxylate groups of DOTPI not considered): 22.69
protonation constant CaH2L [2]: 5.04 (9)
protonation constant CaHL [2]: 6.49 (4)
stability constant of dinuclear complex Ca2L [2]: 2.85 (5)
Compound: O=C(O)CCP(=O)(O)CN1CCN(CP(=O)(O)CCC(=O)O)CCN(CP(=O)(O)CCC(=O)O)CCN(CP(=O)(O)CCC(=O)O)CC1 [DOTPI, 1,4,7,10-tetraazacyclododecane-1,4,7,10-tetrakis[methylene(2-carboxyethylphosphinic acid)]]
logKML, CuL [3]: 23.11
logKML, ZnL [4]: 18.57
